# Reference: patent US20230391725A1, “MODULATORS OF THE INTEGRATED STRESS RESPONSE PATHWAY” (Evotec International GmbH, priority 2020, published 2023)
# Counter-ions that a name gives are not always drawn.
# Tested on: ATF4
# Test: HEK-ATF4 High Content Imaging assay (prevention of Tunicamycin induced ISR)
# Type: cell-based
# Details: Homo sapiens, Wild-type HEK293 cells, 6 h incubation, ATF4 signal ratio between nucleus and cytoplasm
# Protocol: Example compounds were tested in the HEK-ATF4 High Content Imaging assay to assess their pharmacological potency to prevent Tunicamycin induced ISR. Wild-type HEK293 cells were plated in 384-well imaging assay plates at a density of 12,000 cells per well in growth medium (containing DMEM/F12, 10% FBS, 2 mM L-Glutamine, 100 U/mL Penicillin—100 μg/mL Streptomycin) and incubated at 37° C., 5% CO2. 24 h later, the medium was changed to 50 μL assay medium per well (DMEM/F12, 0.3% FBS, 2mM L-Glutamine, 100 U/mL Penicillin—100 μg/mL Streptomycin). Example compounds were serially diluted in DMSO, spotted into intermediate plates and prediluted with assay medium containing 3.3 […] Tunicamycin to give an 11-fold excess of final assay concentration. In addition to the example compound testing area, the plates also contained multiples of control wells for assay normalization purposes, wells containing Tunicamycin but no example compounds (High control), as well as wells containing neither example compound nor Tunicamycin (Low control). The assay was started by transferring 5 μL from the intermediate plate into the assay plates, followed by incubation for 6 h at 37° C., 5% CO2. Subsequently, cells were fixed (4% PFA in PBS, 20 min at r.t.) and submitted to indirect ATF4 immunofluorescence staining (primary antibody rabbit anti ATF4, clone D4B8, Cell Signaling Technologies; secondary antibody Alexa Fluor 488 goat anti-rabbit IgG (H+L), Thermofisher Scientific). Nuclei were stained using Hoechst dye (Thermofisher Scientific), and plates were imaged on an Opera Phenix High Content imaging platform equipped with 405 nm and 488 nm excitation. Finally, images were analyzed using script based algorithms. The main readout HEK-ATF4 monitored the ATF4 signal ratio between nucleus and cytoplasm. Tunicamycin induced an increase in the overall ATF4 ratio signal, which was prevented by ISR modulating example compounds. In addition, HEK-CellCount readout was derived from counting the number of stained nuclei corresponding to healthy cells. This readout served as an internal toxicity control.
row,IC50,Compound
1,1 to 500 nM,"O=C(COc1ccc(Cl)c(F)c1)N[C@H]1CC[C@H](C(=O)N[C@H]2CC[C@H](OC(F)(F)F)C2)NC1 (single isomer, unassigned) [Example 53]"
2,500 to 2000 nM,"O=C(COc1ccc(Cl)c(F)c1)N[C@H]1CC[C@H](C(=O)N[C@@H]2CC[C@@H](OC(F)(F)F)C2)NC1 (single isomer, unassigned) [Example 54]"
3,2000 to 15000 nM,"O=C(COc1ccc(Cl)c(F)c1)N[C@H]1CC[C@H](C(=O)NCCCOC(F)(F)F)NC1 [Example 2, (2R,5S)-5-[2-(4-chloro-3-fluorophenoxy)acetamido]-N-[3-(trifluoromethoxy)propyl]piperidine-2-carboxamide hydrochloride]"
4,1 to 500 nM,"O=C(COc1ccc(Cl)c(F)c1)N[C@H]1CC[C@H](C(=O)NCc2ccc(C(F)(F)F)cc2)NC1 [Example 4, (2R,5S)-5-[2-(4-chloro-3-fluorophenoxy)acetamido]-N-{[4-(trifluoromethyl)phenyl]methyl}piperidine-2-carboxamide]"
5,2000 to 15000 nM,"O=C(COc1ccc(Cl)c(F)c1)N[C@H]1CC[C@H](C(=O)N2CC(OCCOC(F)(F)F)C2)NC1 [Example 5, 2-(4-chloro-3-fluorophenoxy)-N-[(3S,6R)-6-{3-[2-(trifluoromethoxy)ethoxy]azetidine-1-carbonyl}piperidin-3-yl]acetamide]"
6,2000 to 15000 nM,"O=C(COc1ccc(Cl)c(F)c1)N[C@H]1CC[C@H](C(=O)NOCCOC(F)(F)F)NC1 [Example 6, (2R,5S)-5-[2-(4-chloro-3-fluorophenoxy)acetamido]-N-[2-(trifluoromethoxy)ethoxy]piperidine-2-carboxamide]"
7,1 to 500 nM,"O=C(COc1ccc(Cl)c(F)c1)N[C@H]1CC[C@H](C(=O)Nc2ccc(Cl)cc2)NC1 [Example 8, (2R,5S)-5-[2-(4-chloro-3-fluorophenoxy)acetamido]-N-(4-chlorophenyl)piperidine-2-carboxamide]"
8,2000 to 15000 nM,"O=C(COc1ccc(Cl)c(F)c1)N[C@@H]1CC[C@@H](C(=O)Nc2ccc(Cl)cc2)NC1 [Example 9, (2S,5R)-5-[2-(4-chloro-3-fluorophenoxy)acetamido]-N-(4-chlorophenyl)piperidine-2-carboxamide]"
9,2000 to 15000 nM,"O=C(COc1ccc(Cl)c(F)c1)N[C@H]1CC[C@H](C(=O)Nc2ccccc2)NC1 [Example 10, (2R,5S)-5-[2-(4-chloro-3-fluorophenoxy)acetamido]-N-phenylpiperidine-2-carboxamide]"
10,1 to 500 nM,"O=C(COc1ccc(Cl)c(F)c1)N[C@H]1CC[C@H](C(=O)Nc2cccc(Cl)c2)NC1 [Example 11, (2R,5S)-5-[2-(4-chloro-3-fluorophenoxy)acetamido]-N-(3-chlorophenyl)piperidine-2-carboxamide]"
11,1 to 500 nM,"O=C(COc1ccc(Cl)c(F)c1)N[C@H]1CC[C@H](C(=O)Nc2cccc(C(F)(F)F)c2)NC1 [Example 12, (2R,5S)-5-[2-(4-chloro-3-fluorophenoxy)acetamido]-N-[3-(trifluoromethyl)phenyl]piperidine-2-carboxamide]"
12,1 to 500 nM,"O=C(COc1ccc(Cl)c(F)c1)N[C@H]1CC[C@H](C(=O)Nc2cccc(OC(F)(F)F)c2)NC1 [Example 13, (2R,5S)-5-[2-(4-chloro-3-fluorophenoxy)acetamido]-N-[3-(trifluoromethoxy)phenyl]piperidine-2-carboxamide]"
13,2000 to 15000 nM,"O=C(COc1ccc(Cl)c(F)c1)N[C@H]1CC[C@H](C(=O)NCc2ccc(Cl)cn2)NC1 [Example 14, (2R,5S)-5-[2-(4-chloro-3-fluorophenoxy)acetamido]-N-[(5-chloropyridin-2-yl)methyl]piperidine-2-carboxamide]"
14,2000 to 15000 nM,"O=C(COc1ccc(Cl)c(F)c1)N[C@H]1CC[C@H](C(=O)N[C@H]2CC[C@@H](OC(F)(F)F)CC2)NC1 [Example 15, (2R,5S)-5-[2-(4-chloro-3-fluorophenoxy)acetamido]-N-[(1s,4s)-4-(trifluoromethoxy)cyclohexyl]piperidine-2-carboxamide]"
15,2000 to 15000 nM,"COc1cc(Cl)ccc1NC(=O)[C@H]1CC[C@H](NC(=O)COc2ccc(Cl)c(F)c2)CN1 [Example 16, (2R,5S)-N-(4-chloro-2-methoxyphenyl)-5-[2-(4-chloro-3-fluorophenoxy)acetamido]piperidine-2-carboxamide]"
16,2000 to 15000 nM,"O=C(COc1ccc(Cl)c(F)c1)N[C@H]1CC[C@H](C(=O)NCc2ccc(C(F)(F)F)o2)NC1 [Example 17, (2R,5S)-5-[2-(4-chloro-3-fluorophenoxy)acetamido]-N-{[5-(trifluoromethyl)furan-2-yl]methyl}piperidine-2-carboxamide]"
17,1 to 500 nM,"O=C(COc1ccc(Cl)c(F)c1)N[C@H]1CC[C@H](C(=O)NCc2cc(C(F)(F)F)co2)NC1 [Example 18, (2R,5S)-5-[2-(4-chloro-3-fluorophenoxy)acetamido]-N-{[4-(trifluoromethyl)furan-2-yl]methyl}piperidine-2-carboxamide]"
18,2000 to 15000 nM,"O=C(COc1ccc(Cl)c(F)c1)N[C@H]1CC[C@H](C(=O)NC[C@H]2CC[C@@H](C(F)(F)F)CC2)NC1 [Example 19, (2R,5S)-5-[2-(4-chloro-3-fluorophenoxy)acetamido]-N-{[(1s,4s)-4-(trifluoromethyl)cyclohexyl]methyl}piperidine-2-carboxamide]"
19,2000 to 15000 nM,"COc1cccc(NC(=O)[C@H]2CC[C@H](NC(=O)COc3ccc(Cl)c(F)c3)CN2)c1 [Example 20, (2R,5S)-5-[2-(4-chloro-3-fluorophenoxy)acetamido]-N-(3-methoxyphenyl)piperidine-2-carboxamide]"
20,1 to 500 nM,"O=C(COc1ccc(Cl)c(F)c1)N[C@H]1CC[C@H](C(=O)Nc2ccc(F)c(C(F)(F)F)c2)NC1 [Example 21, (2R,5S)-5-[2-(4-chloro-3-fluorophenoxy)acetamido]-N-[4-fluoro-3-(trifluoromethyl)phenyl]piperidine-2-carboxamide]"
21,1 to 500 nM,"O=C(COc1ccc(Cl)c(F)c1)N[C@H]1CC[C@H](C(=O)Nc2cncc(C(F)(F)F)c2)NC1 [Example 22, (2R,5S)-5-[2-(4-chloro-3-fluorophenoxy)acetamido]-N-[5-(trifluoromethyl)pyridin-3-yl]piperidine-2-carboxamide]"
22,500 to 2000 nM,"O=C(COc1ccc(Cl)c(F)c1)N[C@H]1CC[C@H](C(=O)Nc2cccc(F)c2)NC1 [Example 23, (2R,5S)-5-[2-(4-chloro-3-fluorophenoxy)acetamido]-N-(3-fluorophenyl)piperidine-2-carboxamide]"
23,1 to 500 nM,"O=C(COc1ccc(Cl)c(F)c1)N[C@H]1CC[C@H](C(=O)Nc2cccc(C(F)F)c2)NC1 [Example 24, (2R,5S)-5-[2-(4-chloro-3-fluorophenoxy)acetamido]-N-[3-(difluoromethyl)phenyl]piperidine-2-carboxamide]"
24,500 to 2000 nM,"O=C(COc1ccc(Cl)c(F)c1)N[C@H]1CC[C@H](C(=O)Nc2ccc(Cl)cn2)NC1 [Example 25, (2R,5S)-5-[2-(4-chloro-3-fluorophenoxy)acetamido]-N-(5-chloropyridin-2-yl)piperidine-2-carboxamide]"
25,2000 to 15000 nM,"Cc1c(NC(=O)[C@H]2CC[C@H](NC(=O)COc3ccc(Cl)c(F)c3)CN2)cnn1CC(F)(F)F [Example 26, (2R,5S)-5-[2-(4-chloro-3-fluorophenoxy)acetamido]-N-[5-methyl-1-(2,2,2-trifluoroethyl)-1H-pyrazol-4-yl]piperidine-2-carboxamide]"
26,500 to 2000 nM,"O=C(COc1ccc(Cl)c(F)c1)N[C@H]1CC[C@H](C(=O)N[C@H]2C[C@@H](OC(F)(F)F)C2)NC1 [Example 27, (2R,5S)-5-[2-(4-chloro-3-fluorophenoxy)acetamido]-N-[(1s,3s)-3-(trifluoromethoxy)cyclobutyl]piperidine-2-carboxamide]"
27,2000 to 15000 nM,"Cc1cc(C)cc(NC(=O)[C@H]2CC[C@H](NC(=O)COc3ccc(Cl)c(F)c3)CN2)c1 [Example 28, (2R,5S)-5-[2-(4-chloro-3-fluorophenoxy)acetamido]-N-(3,5-dimethylphenyl)piperidine-2-carboxamide]"
28,2000 to 15000 nM,"O=C(COc1ccc(Cl)c(F)c1)N[C@H]1CC[C@H](C(=O)NCCCCC(F)(F)F)NC1 [Example 29, (2R,5S)-5-[2-(4-chloro-3-fluorophenoxy)acetamido]-N-(5,5,5-trifluoropentyl)piperidine-2-carboxamide]"
29,500 to 2000 nM,"O=C(COc1ccc(Cl)c(F)c1)N[C@H]1CC[C@H](C(=O)Nc2cccc(OC(F)F)c2)NC1 [Example 30, (2R,5S)-5-[2-(4-chloro-3-fluorophenoxy)acetamido]-N-[3-(difluoromethoxy)phenyl]piperidine-2-carboxamide]"
30,1 to 500 nM,"O=C(COc1ccc(Cl)c(F)c1)N[C@@H]1CC[C@@H](C(=O)Nc2cccc(C(F)(F)F)c2)NC1 [Example 31, (2S,5R)-5-[2-(4-chloro-3-fluorophenoxy)acetamido]-N-[3-(trifluoromethyl)phenyl]piperidine-2-carboxamide]"
